These results are taken from US9790504B2, “Anti-tumor therapy” (The University of Chicago, priority 2013, dated 2017).

Assay [1] deals with two lung cancer cell lines. The conditions noted are these: associated with suppression of the Stat3 pathway; cited from earlier work.
The test system of the next assay is Stat1. Put plainly: Western blot of interferon-mediated Stat1 activation with Jak inhibitors. Format: cell-based. Conditions: β- and γ-interferon (Type I and Type II IFN) signaling, SCC61 cells. The protocol: (§1) Treatment with TG and Rux inhibited β- and γ-interferon-mediated activation of Stat1 and Stat3;
(§2) Total cellular protein was extracted in radioimmunoprecipitation assay buffer with protease inhibitors added (1×PBS, 1% NP40, 0.5% sodium deoxycholate, 0.1% SDS, 1 mmol/L Na3VO4, 2 μg/mL aprotinin, 1 mmol/L phenylmethylsulfonyl fluoride). All samples were normalized by protein concentration using Bradford reagent and standard solution of bovine serum albumin (1 mg/mL). Concentration of all samples was adjusted to 1 mg/mL and equal amount of protein was loaded in each well. For total proteins, 10 μg of protein was loaded per well. Proteins were separated on 7.5%-12% SDS-PAGE (depending on molecular mass of protein) and transferred to polyvinylidene difluoride membranes (PVDF). Total proteins were detected using the rabbit or goat primary Abs. For loading control, the antibodies for actin (I-19) and glyceraldehyde-3-phosphate dehydrogenase (GAPDH; FL-335) were used. All antibodies were purchased from Santa Cruz Biotechnology. Images were quantified with ImageJ software by integration pixel values across the area of specific bands.
(§3) The effects of Jak1/2 and Jak2 inhibitors were investigated on the activation of Stat1 and Stat3 in the context of Type I and Type II IFN signaling. […]

A further assay deals with different cell lines. Put plainly: Suppression of tumor growth in different cell lines. Format: cell-based. Conditions: data not shown.
In assay [2] the test system is CWRR1 (pStat3-negative) xenografts. The assay is described as follows: Xenograft in nude mice treated by ionizing radiation, TG, or their combination. Format: in vivo. Conditions: without constitutive activation of Jak/Stat signaling. Here is the method:
(§4) The relative sensitivity of lung cancer cell lines to TG and etoposide—one of the most common drugs in adjuvant chemotherapy of lung cancer was also tested. Subgroups of cell lines were found with relatively high resistance to etoposide (SF>0.5) but relatively sensitive to TG (0.1<SF<0.2; see FIG. 8). As proof of principle, two isogenic cell lines CWRR1 (pStat3-negative, without constitutive activation of Jak/Stat-signaling) and CW22Rv1 (with constitutively active Jak/Stat signaling) were established as xenografts in nude mice and treated by ionizing radiation, TG, or their combination.

The test system of assay [3] is CW22Rv1 (pStat3-positive) xenografts. Described as above. It counts as in vivo. The conditions noted are these: constitutively active Jak/Stat signaling. Here is the method: as §4
The next assay has as its system Stat3. Put plainly: Western blot of interferon-mediated Stat3 activation with Jak inhibitors. It counts as cell-based. The conditions noted are these: β- and γ-interferon (Type I and Type II IFN) signaling, SCC61 cells. The protocol: as §1, §2, §3
In general terms: A western blot detects proteins with antibodies after separation by electrophoresis.

The next assay has as its system lung cancer cell lines. The assay is described as follows: Clonogenic assay, sensitivity of lung cancer cell lines to drug. It counts as cell-based. The protocol:
(§5) To screen the candidate interferon-stimulated genes, a panel of fifteen individual cancer cell lines were selected from those available in our lab, the ATCC, or affiliated laboratories (see Table No. 3, below). These cell lines were characterized for relative radioresistance using a clonogenic assay. Briefly, the cells were cultured in their appropriate media at 5% CO2 at 37° C. Optimal cell plating concentrations for a p60 dish were determined for each cell line. The majority of cell lines were plated in triplicate at concentrations of 100 cells/plate for control, 1000 cells/plate for 2 Gy, 2000 cells/plate for 5 Gy, and 3000 cells/plate for 8 Gy. Plates were irradiated 24 hours after plating with either 2, 5, or 8 Gy using a Nordion Gammacell ^60Co irradiator operating at a dose rate of ˜18 Gy/minute. Cells were allowed to grow for 10-21 days (depending on the cell line) until colonies were >50 cells. Plates were then fixed with formalin and stained with crystal violet. Colonies with more than 50 cells were counted. Clonogenic survival for Clonogenic data was obtained for all cell lines tested in screen.
In subsequent experiments, 18 lung cancer cell lines were tested for sensitivity to the Jak2 inhibitor SAR302503 (TG) using a clonogenic assay. […] Further, radioresistance was positively correlated with resistance to Jak2 suppression in 11 cell lines. […]

The subject of the next assay is H2030 cells. Put plainly: Clonogenic assay, ionizing radiation plus TG. Format: cell-based. The conditions noted are these: 5 Gy+1 μM TG; most radioresistant cells. Here is the method:
as §5
In subsequent experiments, 18 lung cancer cell lines were tested for sensitivity to the Jak2 inhibitor SAR302503 (TG) using a clonogenic assay. […] Further, radioresistance was positively correlated with resistance to Jak2 suppression in 11 cell lines.

“Also recorded” adds a separate entry of the source.

As for `Cc1cnc(Nc2ccc(N3CCN(C)CC3)cc2)nc1Nc1cccc(S(=O)(=O)NC(C)(C)C)c1` [TG101209], the radiosensitizing effects result in assay [1] is “radiosensitizing effects”.

For `Cc1cnc(Nc2ccc(OCCN3CCCC3)cc2)nc1Nc1cccc(S(=O)(=O)NC(C)(C)C)c1` [TG], the “phosphorylation (activation) of Stat1” value with Stat1 is recorded as “suppressed; also recorded: inhibited”. For the same compound, the “suppression of tumor growth compared to Ruxolitinib” value in the assay on different cell lines was “more effectively suppressed tumor growth compared to Ruxolitinib”. Further, the “sensitization to ionizing radiation” value is reported as “not sensitized” in assay [2] and “successfully sensitized” in assay [3]. Further, in the assay on Stat3, the “phosphorylation (activation) of Stat3” value was “suppressed; also recorded: inhibited”. In the assay with lung cancer cell lines (7 relatively radioresistant cell lines of 18 lung cancer cell lines, clonogenic assay), the “sensitivity to TG” value is “high sensitivity”. Besides, the clonogenic colonies result with H2030 cells was “no clonogenic colonies formed”.

With `COc1cc([C@@H]2c3cc4c(cc3[C@@H](O[C@@H]3O[C@@H]5CO[C@@H](C)O[C@H]5[C@H](O)[C@H]3O)[C@H]3COC(=O)[C@H]23)OCO4)cc(OC)c1O` [etoposide], the “SF (surviving fraction)” value with lung cancer cell lines (subgroups of lung cancer cell lines with high resistance to etoposide but relatively sensitive to TG) is listed as over 0.5.
